Where a name gives a salt, the structure may show the parent alone.
Molecular target: T1, CA (Human immunodeficiency virus type 1 group M subtype B, UniProt P12493)
T1 construct: a fusion protein of CA with glutathione-S-transferase (CA-GST)
Assay: AlphaScreen: inhibition of CAI-biotin peptide binding to CA-GST
Parameters: species or system HIV-1
Conditions: inhibition of CAI binding to CA (CA-GST fusion); compounds screened at 0.5-100 µM; read-out: α screen IC50
Protocol: The AlphaScreen experiments are performed using Perkin Elmer Enspire plate reader in white 96-well ProxiPlates and PBS supplemented with 0.05% Tween20, 2mM DTT, 2% DMSO. First, Streptavidin-coated Donor beads are used to capture the CAI-biotin peptide. In the other solution, a fusion protein of CA with glutathione-S-transferase (CA-GST) is mixed with GSH Acceptor beads. Both mixtures were incubated and then mixed together. To test the ability of prepared organic compounds to inhibit the CAI binding to CA, they are screened at concentrations between 0.5-100 µM and IC50 values are calculated from the influenced signals.
Upon illumination by laser at 680 nm, Donor beads containing the photosensitizer phthalocyanine convert ambient oxygen to an excited form of singlet oxygen ^1O2. Singlet oxygen can within its half-life of ∼ 4µs diffuse approximately 200 nm in solution. If an Acceptor bead is within that proximity, which is mostly upon CA:CAI interaction, energy is transferred from the singlet oxygen to thioxene derivates within the Acceptor and signal at 520 - 620 nm is emitted. […] Table 4: Synthesized and tested compounds

Compound	IC50 [µM]
Fc1cc(Nc2cc(-c3cccnc3Cl)ncn2)cc(F)c1F [KP-373, 6-(2-Chloropyridin-3-yl)-N-(3,4,5-trifluorophenyl)pyrimidin-4-amine hydrochloride]	> 100
Fc1ccc(Nc2ccnc(-c3cncc(Br)c3)n2)cc1F [KP-355, 2-(5-Bromopyridin-3-yl)-N-(3,4-difluorophenyl)pyrimidin-4-amine hydrochloride]	> 100
Cc1ccc(NC(=O)c2cccc(C(F)(F)F)c2)cc1Nc1cc(-c2cccnc2Cl)ncn1 [KP-380, N-(3-(6-(2-chloropyridin-3-yl)pyrimidin-4-ylamino)-4-methylphenyl)-3-(trifluoromethyl)benzamide hydrochloride]	> 100
Cc1cc(Nc2ccc(C(=O)NCCF)c(F)c2)nc(-c2cccnc2)n1 [AMR-828, 2-fluoro-N-(2-fluoroethyl)-4-((6-methyl-2-(pyridin-3-yl)pyrimidin-4-yl)amino)benzamide hydrochloride]	3
